Data published in patent US20230031406A1, “COMPOUNDS AND COMPOSITIONS FOR TREATING CONDITIONS ASSOCIATED WITH NLRP ACTIVITY” (Novartis AG, priority 2018, published 2023).
Like-named read-outs stand apart in the source and are kept apart here. Each block holds one compound with its values, some of them ahead of it.

Tested on: PMA-differentiated THP-1 cells
Assay: IL-1β production in PMA-differentiated THP-1 cells stimulated with gramicidin (hTHP-1 assay containing 2% fetal bovine serum; Procedures 1 and 2)
Assay type: cell-based, human
Conditions: 2% fetal bovine serum
How it was run: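 IL-1β release from PMA-differentiated THP-1 macrophage-like cells was triggered by 5 μM gramicidin for 2 h after 1 h compound exposure, then measured by HTRF.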

[1] = Homo sapiens, THP-1, Table B2, class symbols, read-out: hTHP-1 IC50
[2] = Homo sapiens, THP-1, Table B3, hTHP-1 assay, class symbols, read-out: IC50
[3] = Homo sapiens, THP-1, Table B1, class symbols, read-out: Average IC50 of compounds in hTHP-1 assay: hTHP-1 IC50
[4] = Table B4, class symbols, read-out: hTHP-1 IC50
[5] = Table B2, class symbols, read-out: hTHP-1 IC50

Compound: Cc1c(C2(F)CC2)nc2c(c1NC(=O)N=S(N)(=O)c1sc(C(C)(C)O)cc1F)CCC2 (single isomer, unassigned) [Example 686, (S) or (R)-3-fluoro-N′-((2-(1-fluorocyclopropyl)-3-methyl-6,7-dihydro-5H-cyclopenta[b]pyridin-4-yl)carbamoyl)-5-(2-hydroxypropan-2-yl) thiophene-2-sulfonimidamide]
IC50 (Homo sapiens, THP-1, Table B3, hTHP-1 assay, numeric values, read-out: IC50): > 30000 nM

Compound: CC(C)(O)c1csc(S(N)(=O)=NC(=O)Nc2c3c(nc(C(F)(F)F)c2C2CC2)CCC3)c1 (stereo not drawn) [Example 609, N′-((3-cyclopropyl-2-(trifluoromethyl)-6,7-dihydro-5H-cyclopenta[b]pyridin-4-yl)carbamoyl)-4-(2-hydroxypropan-2-yl)thiophene-2-sulfonimidamide]
IC50 [2]: 200 to 1000 nM

Compound: CC(C)(O)c1ncc(S(N)(=O)=NC(=O)Nc2c3c(nc4c2CCC4)CCCC3)s1 (stereo not drawn) [Compound 161, N′-((2,3,5,6,7,8-hexahydro-1H-cyclopenta[b]quinolin-9-yl)carbamoyl)-2-(2-hydroxypropan-2-yl)thiazole-5-sulfonimidamide]
IC50 [3]: 1000 to 5000 nM

Compound: C[C@@H]1CCc2c1nc1c(c2NC(=O)N=S(N)(=O)c2nn(C(F)F)cc2F)CCC1 (stereo partly drawn) [Example 568, 1-(Difluoromethyl)-4-fluoro-N′-(((R)-3-methyl-1,2,3,5,6,7-hexahydrodicyclopenta[b,e]pyridin-8-yl)carbamoyl)-1H-pyrazole-3-sulfonimidamide]
IC50 [2]: 40 to 200 nM

Compound: CC(C)(O)c1nc(CO)c(S(N)(=O)=NC(=O)Nc2c3c(nc4c2CCC4(C)C)CCC3)s1 (stereo not drawn) [Compound 121, N′-((3,3-dimethyl-1,2,3,5,6,7-hexahydrodicyclopenta[b,e]pyridin-8-yl)carbamoyl)-4-(hydroxymethyl)-2-(2-hydroxypropan-2-yl)thiazole-5-sulfonimidamide]
IC50 [3]: 200 to 1000 nM

Compound: COCc1nc(C(C)(C)O)sc1S(N)(=O)=NC(=O)Nc1c2c(nc3c1CCC3)CCC2 (stereo not drawn) [Compound 689, N′-((1,2,3,5,6,7-hexahydrodicyclopenta[b,e]pyridin-8-yl)carbamoyl)-2-(2-hydroxypropan-2-yl)-4-(methoxymethyl)thiazole-5-sulfonimidamide]
IC50 [1]: 1000 to 5000 nM

Compound: NS(=O)(=NC(=O)Nc1c2c(nc(C3CC3)c1C1CC1)CCC2)c1nn(C(F)F)cc1F (single isomer, unassigned) [Example 763, (R) or (S)-N′-((2,3-dicyclopropyl-6,7-dihydro-5H-cyclopenta[b]pyridin-4-yl)carbamoyl)-1-(difluoromethyl)-4-fluoro-1H-pyrazole-3-sulfonimidamide]
IC50 [4]: 200 to 1000 nM

Compound: CCn1cc(F)c(S(N)(=O)=NC(=O)Nc2c3c(nc4c2CCC4)CCC3)n1 (single isomer, unassigned) [Example 762, (S) or (R)-1-ethyl-4-fluoro-N′-((1,2,3,5,6,7-hexahydrodicyclopenta[b,e]pyridin-8-yl)carbamoyl)-1H-pyrazole-3-sulfonimidamide]
IC50 [4]: 5000 to 30000 nM

Compound: Cc1c(C(F)(F)F)nc2c(c1NC(=O)N=S(N)(=O)c1cnn3c1OCCC3)CCC2 (stereo not drawn) [Example 565, N′-((3-methyl-2-(trifluoromethyl)-6,7-dihydro-5H-cyclopenta [b]pyridin-4-yl)carbamoyl)-6,7-dihydro-5H-pyrazolo[5,1-b][1,3]oxazine-3-sulfonimidamide]
IC50 [2]: 5000 to 30000 nM

Compound: CCn1cc(F)c(S(N)(=O)=NC(=O)Nc2c3c(nc4c2CCC4)CCC3)n1 (stereo not drawn) [Example 736, 1-Ethyl-4-fluoro-N′-((1,2,3,5,6,7-hexahydrodicyclopenta[b,e]pyridin-8-yl)carbamoyl)-1H-pyrazole-3-sulfonimidamide]
IC50 (Homo sapiens, THP-1, Table B4, class symbols, read-out: hTHP-1 IC50): 200 to 1000 nM

Compound: CC1(C)CCc2c1nc1c(c2NC(=O)N=S(N)(=O)c2cc(CO)n(CCO)n2)CCC1 (stereo not drawn) [Example 626, N′-((3,3-dimethyl-1,2,3,5,6,7-hexahydrodicyclopenta[b,e]pyridin-8-yl)carbamoyl)-1-(2-hydroxyethyl)-5-(hydroxymethyl)-1H-pyrazole-3-sulfonimidamide]
IC50 [2]: 200 to 1000 nM

Compound: CCn1cc(F)c(S(N)(=O)=NC(=O)Nc2c3c(nc(C)c2-c2ccccc2)CCC3)n1 (single isomer, unassigned) [Example 769, (R) or (S)-1-ethyl-4-fluoro-N′-((2-methyl-3-phenyl-6,7-dihydro-5H-cyclopenta[b]pyridin-4-yl)carbamoyl)-1H-pyrazole-3-sulfonimidamide]
IC50 [4]: 5000 to 30000 nM

Compound: CC(C)(O)c1sc(S(N)(=O)=NC(=O)Nc2c3c(nc4c2CCC4)CCC3)cc1Cl (stereo not drawn) [Compound 688, 4-Chloro-N′-((1,2,3,5,6,7-hexahydrodicyclopenta[b, e]pyridin-8-yl)carbamoyl)-5-(2-hydroxypropan-2-yl)thiophene-2-sulfonimidamide]
IC50 [1]: 1000 to 5000 nM

Compound: CCn1cc(F)c(S(N)(=O)=NC(=O)Nc2c3c(nc(C(F)(F)F)c2C2CC2)CCC3)n1 (stereo not drawn) [Compound 983]
IC50 [2]: 40 to 200 nM

Compound: Cc1nc2c(c(NC(=O)N=[S@@](N)(=O)c3cnc(C(C)(C)O)s3)c1C1CC1)CCC2 [Compound 738]
IC50 (Homo sapiens, THP-1, Table B2, numeric bounds, read-out: hTHP-1 IC50): > 30000 nM

Compound: CC(C)(O)c1sc(S(N)(=O)=NC(=O)Nc2c3c(nc4c2CCC4(C)C)CCC3)nc1CO (stereo not drawn) [Compound 642, N′-((3,3-dimethyl-1,2,3,5,6,7-hexahydrodicyclopenta[b,e]pyridin-8-yl)carbamoyl)-4-(hydroxymethyl)-5-(2-hydroxypropan-2-yl)thiazole-2-sulfonimidamide]
IC50 [1]: 40 to 200 nM

Compound: Cc1c(-c2ccccc2)nc2c(c1NC(=O)N=S(N)(=O)c1cnc(C(C)(C)O)s1)CCC2 (stereo not drawn) [Compound 143, 2-(2-hydroxypropan-2-yl)-N′-((3-methyl-2-phenyl-6,7-dihydro-5H-cyclopenta[b]pyridin-4-yl)carbamoyl)thiazole-5-sulfonimidamide]
IC50 (Homo sapiens, THP-1, Table B1, numeric bounds, read-out: Average IC50 of compounds in hTHP-1 assay: hTHP-1 IC50): > 30000 nM

Compound: Cc1c(C(F)(F)F)nc2c(c1NC(=O)N=S(N)(=O)c1cnc(C(C)(C)O)s1)CCC2C (single isomer, unassigned) [Example 704, (R/S, R) or (R/S, S)-N′-((3,7-dimethyl-2-(trifluoromethyl)-6,7-dihydro-5H-cyclopenta[b]pyridin-4-yl)carbamoyl)-2-(2-hydroxypropan-2-yl)thiazole-5-sulfonimidamide]
IC50 (Table B3, hTHP-1 assay, class symbols, read-out: IC50): 200 to 1000 nM

Compound: CC(C)(O)c1csc(S(N)(=O)=NC(=O)Nc2c3c(nc4c2CCC42CC2)CCC3)c1 (stereo not drawn) [Compound 114]
IC50 [3]: 40 to 200 nM

Compound: Cc1sc(S(N)(=O)=NC(=O)Nc2c3c(nc4c2CCC4)CCC3)cc1C(C)(C)O (stereo not drawn) [Compound 107, N′-((1,2,3,5,6,7-hexahydrodicyclopenta[b,e]pyridin-8-yl)carbamoyl)-4-(2-hydroxypropan-2-yl)-5-methylthiophene-2-sulfonimidamide]
IC50 [3]: 200 to 1000 nM

More lines, now with the values ahead:

IC50 [1]: 1000 to 5000 nM
Compound: CC(C)(O)c1sc(S(N)(=O)=NC(=O)Nc2c3c(nc4c2CCC4)CCC3)cc1F (single isomer, unassigned) [Compound 678a, (R) or (S)-4-Fluoro-N′-((1,2,3,5,6,7-hexahydrodicyclopenta [b,e]pyridin-8-yl)carbamoyl)-5-(2-hydroxypropan-2-yl)thiophene-2-sulfonimidamide]

IC50 (Table B1, numeric bounds, read-out: Average IC50 of compounds in hTHP-1 assay: hTHP-1 IC50): > 10000 nM
Compound: CCc1cc(NC(=O)N=S(N)(=O)c2cnc(C(C)(C)O)s2)c2c(n1)CCC2 (single isomer, unassigned) [Compound 137a, (R) or (S)-N′-((2-ethyl-6,7-dihydro-5H-cyclopenta[b]pyridin-4-yl)carbamoyl)-2-(2-hydroxypropan-2-yl)thiazole-5-sulfonimidamide]

IC50 [5]: 5000 to 30000 nM
Compound: CC(C)(O)c1cc(Cl)c(S(N)(=O)=NC(=O)Nc2c3c(nc4c2CCC4)CCC3)s1 (single isomer, unassigned) [Compound 691a, (S) or (R)-3-Chloro-N′-((1,2,3,5,6,7-hexahydrodicyclopenta [b,e]pyridin-8-yl)carbamoyl)-5-(2-hydroxypropan-2-yl)thiophene-2-sulfonimidamide]

IC50 [1]: 200 to 1000 nM
Compound: CCc1cc(F)c(S(N)(=O)=NC(=O)Nc2c3c(nc4c2CC[C@H]4C)CCC3)s1 (stereo partly drawn) [Compound 720c]

IC50 [1]: 5000 to 30000 nM
Compound: CC(C)n1cc(S(N)(=O)=NC(=O)Nc2c3c(nc4c2CCC4(C)C)CCC3)c(CO)n1 (single isomer, unassigned) [Compound 653a, (R) or (S)-N′-((3,3-dimethyl-1,2,3,5,6,7-hexahydrodicyclopenta [b,e]pyridin-8-yl)carbamoyl)-3-(hydroxymethyl)-1-isopropyl-1H-pyrazole-4-sulfonimidamide]

IC50 [3]: 1000 to 5000 nM
Compound: CC1(C)Cc2nc3c(c(NC(=O)N=S(N)(=O)c4cnc(C(C)(C)O)s4)c2C1)CCC3 (single isomer, unassigned) [Compound 147b, (R) or (S)-N′-((2,2-dimethyl-1,2,3,5,6,7-hexahydro-dicyclopenta[b,e]pyridin-8-yl)carbamoyl)-2-(2-hydroxypropan-2-yl)thiazole-5-sulfonimidamide]

IC50 [5]: 1000 to 5000 nM
Compound: CC(C)c1nc(CO)c(S(N)(=O)=NC(=O)Nc2c3c(nc4c2CCC4(C)C)CCC3)s1 (single isomer, unassigned) [Compound 680b, (R) or (S)-N′-((3,3-dimethyl-1,2,3,5,6,7-hexahydrodicyclopenta [b,e]pyridin-8-yl)carbamoyl)-4-(hydroxymethyl)-2-isopropylthiazole-5-sulfonimidamide]
